From patent publication US20220081433A1, “CYCLIC SULFAMIDE COMPOUNDS FOR TREATMENT OF HBV” (Assembly Biosciences, Inc., priority 2018, published 2022)

test system: HBV; assay: Activity of test compounds on viral production from HepAD38 cells (viral load by qPCR of HBV core sequence); type: cell-based; conditions: Hepatitis B virus, 120 h, 5 days, supernatant HBV DNA by qPCR vs DMSO control, read-out: viral load lowering EC50 (Activity)
Protocol: Assay Measuring Activity of Test Compounds on Viral Production from HepAD38 Cells
HepAD38 cells grown in a T-150 flask (Corning, cat#: 430825) with Growth Medium (DMEM/F12 (1:1) (Hyclone, cat#: SH30023.02), 1× Pen/Strep (Invitrogen, cat#: 15140-122), 10% FBS (Tissue Culture Biologics, cat#: 101), 250 μg/mL G418 (Alfa Aesar, cat#: J62671), 1 μg/mL Tetracycline (Teknova, cat#: T3320)) were detached with 0.25% trypsin-EDTA (Invitrogen, cat#: 25200-056). Tetracycline-free treatment medium (15 mL DMEM/F12 (1:1) 1×Pen/step, with 2% FBS, Tet-system approved (Clontech, cat#: 631106) were then added to mix, transferred into a 50 ml conical tube (Falcon, cat#: 21008-918) and spun at 1300 rpm for 5 min. Pelleted cells were then re-suspended/washed with 50 mL of 1×DPBS (Invitrogen, cat#: 14190-136) 2 times and 50 mL treatment medium twice. HepAD38 cells were then re-suspended with 10 mL of treatment medium, syringed and counted. Wells of 96-well clear bottom TC plate (Corning, cat#: 3904) were seeded at 50,000 cells/well in 180 μL of treatment medium, and 20 μL of either 10% DMSO (Sigma, cat#: D4540) as controls or a 10× solution of test compounds in 10% DMSO in treatment media was added for a final compound concentration starting at 10 μM, and plates were incubated in 5% CO2 incubator at 37° C. for 5 days.
Subsequently viral load production was assayed by quantitative PCR (qPCR) of the HBV core sequence. PCR reaction mixture containing forward primers HBV-f 5′-CTGTGCCTTGGGTGGCTTT-3′ (IDT DNA), Reverse primers HBV-r 5′-[…]-3′ (IDT DNA), Fluorescent TaqMan™ Probes HBV-probe 5′-FAM/AGCTCCAAA/ZEN/[…]/3IABkFQ-3′ (IDT DNA), 10 μL/well of PerfeCTa® qPCR ToughMix® (Quanta Biosciences, Cat#: 95114-05K), and 6 μL/well of DEPC water (Alfa Aesar, cat#: J62087) was prepared. Four μL of supernatant was added to 16 μL of the reaction mixture in a qPCR plate (Applied Biosytems, Cat#: 4309849), sealed with a film (Applied Biosystems, Cat#: 4311971), centrifuged for a few seconds, and subsequently run on an Applied Biosystems VIIA7. The PCR mixture was incubated at 45° C. for 5 min, then 95° C. for 10 min, followed by 40 cycles of 10 seconds at 95° C. and 20 seconds at 60° C. Viral load was quantified against known HBV DNA standards by using ViiA™ 7 Software. Viral load in the supernatant from wells with treated cells were compared against viral load in supernatant from DMSO control wells (≥ 3 per plate). Cell viability assay was performed with CellTiter-Glo Luminescent Cell Viability Assay (Promega, cat#: G7573) with modification. Mixed appropriate amount of CellTiter-Glo (CTG) 1×DPBS in a 1:1 ratio, added 100 uL of the mixture to each well followed completely removal of all supernatant in each well without touching cell surface. Incubated the plate at room temperature for 10 min on an orbital shaker, and then read the plate with a plate reader (TECAN M1000 or Envision). EC50 or CC50 values were calculated through curve-fitting of the four-parameter nonlinear-logistic-regression model (GraphPad Prism or Dotmatics). CC50 values were all >10 μM.

| Compound | EC50 |
| --- | --- |
| CN1[C@@H](C(=O)Nc2ccc(F)c(Cl)c2)C[C@@H](c2cccc(-c3ccccc3)c2)NS1(=O)=O (single isomer, unassigned) [2-Isomer II] | 5000 to 10000 nM |
| CN1[C@H](C(=O)Nc2ccc(F)c(Cl)c2)C[C@H](c2cccc(-c3ccccc3)c2)NS1(=O)=O (single isomer, unassigned) [2-Isomer I] | < 1000 nM |
| Cc1cc(-c2cccc([C@@H]3C[C@H](C(=O)Nc4ccc(F)c(Cl)c4)N(C)S(=O)(=O)N3)c2)ccn1 (single isomer, unassigned) [3-Isomer II] | 5000 to 10000 nM |
| Cc1cc(-c2cccc([C@H]3C[C@@H](C(=O)Nc4ccc(F)c(Cl)c4)N(C)S(=O)(=O)N3)c2)ccn1 (single isomer, unassigned) [3-Isomer I] | < 1000 nM |
| CN1[C@@H](C(=O)Nc2ccc(F)c(Cl)c2)C[C@@H](c2cccc(-c3ccc(C#N)cc3)c2)NS1(=O)=O (single isomer, unassigned) [4-Isomer II] | 1000 to 5000 nM |
| CN1[C@H](C(=O)Nc2ccc(F)c(Cl)c2)C[C@H](c2cccc(-c3ccc(C#N)cc3)c2)NS1(=O)=O (single isomer, unassigned) [4-Isomer I] | < 1000 nM |
| CN1[C@@H](C(=O)Nc2ccc(F)c(Cl)c2)C[C@@H](c2cccc(-c3ccc(F)cc3Cl)c2)NS1(=O)=O (single isomer, unassigned) [5-Isomer II] | 1000 to 5000 nM |
| CN1[C@H](C(=O)Nc2ccc(F)c(Cl)c2)C[C@H](c2cccc(-c3ccc(F)cc3Cl)c2)NS1(=O)=O (single isomer, unassigned) [5-Isomer I] | < 1000 nM |
| Cc1ccc(-c2cccc([C@@H]3C[C@H](C(=O)Nc4ccc(F)c(Cl)c4)N(C)S(=O)(=O)N3)c2)c(Cl)c1 (single isomer, unassigned) [6-Isomer II] | 1000 to 5000 nM |
| CC(C)c1ccc(-c2cccc([C@@H]3C[C@H](C(=O)Nc4ccc(F)c(Cl)c4)N(C)S(=O)(=O)N3)c2)cc1 (single isomer, unassigned) [7-Isomer II] | 1000 to 5000 nM |
| CC(C)c1ccc(-c2cccc([C@H]3C[C@@H](C(=O)Nc4ccc(F)c(Cl)c4)N(C)S(=O)(=O)N3)c2)cc1 (single isomer, unassigned) [7-Isomer I] | < 1000 nM |
| CN1[C@@H](C(=O)Nc2ccc(F)c(Cl)c2)C[C@@H](c2cccc(-c3cccc(C(F)(F)F)c3)c2)NS1(=O)=O (single isomer, unassigned) [8-Isomer II] | 5000 to 10000 nM |
| CN1[C@H](C(=O)Nc2ccc(F)c(Cl)c2)C[C@H](c2cccc(-c3cccc(C(F)(F)F)c3)c2)NS1(=O)=O (single isomer, unassigned) [8-Isomer I] | < 1000 nM |
| CN1[C@@H](C(=O)Nc2ccc(F)c(Cl)c2)C[C@@H](c2cccc(-c3ccc(Cl)c(Cl)c3)c2)NS1(=O)=O (single isomer, unassigned) [9-Isomer II] | 5000 to 10000 nM |
| CN1[C@H](C(=O)Nc2ccc(F)c(Cl)c2)C[C@H](c2cccc(-c3ccc(Cl)c(Cl)c3)c2)NS1(=O)=O (single isomer, unassigned) [9-Isomer I] | < 1000 nM |
| Cc1cc(-c2cccc([C@@H]3C[C@H](C(=O)Nc4ccc(F)c(Cl)c4)N(C)S(=O)(=O)N3)c2)ccc1F (single isomer, unassigned) [10 Isomer II] | 5000 to 10000 nM |
| Cc1cc(-c2cccc([C@H]3C[C@@H](C(=O)Nc4ccc(F)c(Cl)c4)N(C)S(=O)(=O)N3)c2)ccc1F (single isomer, unassigned) [10-Isomer I] | < 1000 nM |

| Compound | EC50 |
| --- | --- |
| CN1[C@@H](C(=O)Nc2ccc(F)c(Cl)c2)C[C@@H](c2cccc(-c3cccc(C(=O)O)c3)c2)NS1(=O)=O (single isomer, unassigned) [19-Isomer II] | 5000 to 10000 nM |
| CN1[C@H](C(=O)Nc2ccc(F)c(Cl)c2)C[C@H](c2cccc(-c3cccc(C(=O)O)c3)c2)NS1(=O)=O (single isomer, unassigned) [19-Isomer I] | < 1000 nM |
| CN1[C@@H](C(=O)Nc2ccc(F)c(Cl)c2)C[C@@H](c2cccc(N3CCOCC3)c2)NS1(=O)=O (single isomer, unassigned) [24-Isomer II] | 5000 to 10000 nM |
| CN1[C@H](C(=O)Nc2ccc(F)c(Cl)c2)C[C@H](c2cccc(N3CCOCC3)c2)NS1(=O)=O (single isomer, unassigned) [24-Isomer I] | < 1000 nM |
| CN1CCN(c2cccc([C@@H]3C[C@H](C(=O)Nc4ccc(F)c(Cl)c4)N(C)S(=O)(=O)N3)c2)CC1 (single isomer, unassigned) [25-Isomer II] | 1000 to 5000 nM |
| CN1CCN(c2cccc([C@H]3C[C@@H](C(=O)Nc4ccc(F)c(Cl)c4)N(C)S(=O)(=O)N3)c2)CC1 (single isomer, unassigned) [25-Isomer I] | < 1000 nM |
| CN1[C@@H](C(=O)Nc2ccc(F)c(Cl)c2)C[C@@H](c2cccc(-n3ccnc3)c2)NS1(=O)=O (single isomer, unassigned) [27-Isomer II] | 5000 to 10000 nM |
| CN1[C@H](C(=O)Nc2ccc(F)c(Cl)c2)C[C@H](c2cccc(-n3ccnc3)c2)NS1(=O)=O (single isomer, unassigned) [27-Isomer I] | < 1000 nM |
| CN1C(C(=O)Nc2ccc(F)c(Cl)c2)CC(c2cccc(-c3ccccc3)c2)NS1(=O)=O (stereo not drawn) [Example 2, 5-([1,1-Biphenyl]-3-yl)-N-(3-chloro-4-fluorophenyl)-2-methyl-1,2,6-thiadiazinane-3-carboxamide 1,1-dioxide] | < 1000 nM |
| Cc1cc(-c2cccc(C3CC(C(=O)Nc4ccc(F)c(Cl)c4)N(C)S(=O)(=O)N3)c2)ccn1 (stereo not drawn) [Example 3, N-(3-Chloro-4-fluorophenyl)-2-methyl-5-(3-(2-methylpyridin-4-yl)phenyl)-1,2,6-thiadiazinane-3-carboxamide 1,1-dioxide] | < 1000 nM |
| CN1C(C(=O)Nc2ccc(F)c(Cl)c2)CC(c2cccc(-c3ccc(C#N)cc3)c2)NS1(=O)=O (stereo not drawn) [Example 4, N-(3-Chloro-4-fluorophenyl)-5-(4′-cyano-[1,1′-biphenyl]-3-yl)-2-methyl-1,2,6-thiadiazinane-3-carboxamide 1,1-dioxide] | < 1000 nM |
| CN1C(C(=O)Nc2ccc(F)c(Cl)c2)CC(c2cccc(-c3ccc(F)cc3Cl)c2)NS1(=O)=O (stereo not drawn) [Example 5, 5-(2′-Chloro-4′-fluoro-[1,1′-biphenyl]-3-yl)-N-(3-Chloro-4-fluorophenyl)-2-methyl-1,2,6-thiadiazinane-3-carboxamide 1,1-dioxide] | < 1000 nM |
| Cc1ccc(-c2cccc(C3CC(C(=O)Nc4ccc(F)c(Cl)c4)N(C)S(=O)(=O)N3)c2)c(Cl)c1 (stereo not drawn) [Example 6, 5-(2′-Chloro-4′-methyl-[1,1′-biphenyl]-3-yl)-N-(3-Chloro-4-fluorophenyl)-2-methyl-1,2,6-thiadiazinane-3-carboxamide 1,1-dioxide] | < 1000 nM |
| CC(C)c1ccc(-c2cccc(C3CC(C(=O)Nc4ccc(F)c(Cl)c4)N(C)S(=O)(=O)N3)c2)cc1 (stereo not drawn) [Example 7, N-(3-Chloro-4-fluorophenyl)-5-(4′-isopropyl-[1,1′-biphenyl]-3-yl)-2-methyl-1,2,6-thiadiazinane-3-carboxamide 1,1-dioxide] | < 1000 nM |
| CN1C(C(=O)Nc2ccc(F)c(Cl)c2)CC(c2cccc(-c3cccc(C(F)(F)F)c3)c2)NS1(=O)=O (stereo not drawn) [Example 8, N-(3-Chloro-4-fluorophenyl)-2-methyl-5-(3′-(trifluoromethyl)-[1,1′-biphenyl]-3-yl)-1,2,6-thiadiazinane-3-carboxamide 1,1-dioxide] | < 1000 nM |
| CN1C(C(=O)Nc2ccc(F)c(Cl)c2)CC(c2cccc(-c3ccc(Cl)c(Cl)c3)c2)NS1(=O)=O (stereo not drawn) [Example 9, N-(3-Chloro-4-fluorophenyl)-5-(3′,4′-dichloro-[1,1′-biphenyl]-3-yl)-2-methyl-1,2,6-thiadiazinane-3-carboxamide 1,1-dioxide] | 1000 to 5000 nM |
